From US8501744B2, “Piperazine compounds” (Amura Therapeutics, Limited, priority 2008, dated 2013)

Molecular target: Human recombinant cathepsin K (Homo sapiens (Human), UniProt P43235)
Assay: In vitro cathepsin Ki inhibition measurements
Type: biochemical
Conditions: for Ki: human recombinant cathepsin K, pH 5.5, Z-Leu-Arg-AMC substrate, read-out: In vitro Ki (nM) vs Cath K; for fold improvement in in vitro potency against human cathepsin K: relative to closest prior art compound (42)
Protocol: Stock solutions of substrate or inhibitor were made up to 10 mM in 100% dimethylsulfoxide (DMSO) (Rathburns, Glasgow, U.K.) and diluted as appropriately required. In all cases the DMSO concentration in the assays was maintained at less than 1% (vol./vol.). The equilibrium inhibition constants (Ki^ss) for each compound were measured under steady-state conditions monitoring enzyme activity as a function of inhibitor concentration. The values were calculated on the assumption of pure competitive behaviour (Cornish-Bowden, A. Fundamentals of enzyme kinetics Portland Press; 1995, 93-128.). Human recombinant cathepsin K (0.25 nM final; B. Turk, Josef, Stefan Institute, Ljubljana, Slovenia), was routinely assayed in 100 mM sodium acetate; pH 5.5 containing 1 mM EDTA, 10 mM L-cysteine and 1.8 μM Z-Leu-Arg-AMC ([S]=KM).
The apparent inhibition constant (Ki) for each compound was determined on the basis that inhibition was reversible and occurred by a pure-competitive mechanism. The Ki values were calculated, from the dependence of enzyme activity as a function of inhibitor concentration, by direct regression analysis (Prism v 3.02) using Equation 2 (Cornish-Bowden, A., 1995.).
In situations where the apparent dissociation constant (Ki^app) approached the enzyme concentrations, the Ki^app values were calculated using a quadratic solution in the form described by Equation 3 (Morrison, J. F. Trends Biochem. Sci., 7, 102-105, 1982; Morrison, J. F. Biochim. Biophys. Acta. 185, 269-286, 1969; Stone, S. R. and Hofsteenge, J. Biochemistry, 25, 4622-4628, 1986).
Curves were fitted by non-linear regression analysis (Prism) using a fixed value for the enzyme concentration. Equation 4 was used to account for the substrate kinetics, where ‘Ki’ is the inhibition constant, ‘[So]’ is the initial substrate concentration and ‘KM^app’ is the apparent macroscopic binding (Michaelis) constant for the substrate (Morrison, 1982).

Human recombinant cathepsin K, sequence (P43235 115-329): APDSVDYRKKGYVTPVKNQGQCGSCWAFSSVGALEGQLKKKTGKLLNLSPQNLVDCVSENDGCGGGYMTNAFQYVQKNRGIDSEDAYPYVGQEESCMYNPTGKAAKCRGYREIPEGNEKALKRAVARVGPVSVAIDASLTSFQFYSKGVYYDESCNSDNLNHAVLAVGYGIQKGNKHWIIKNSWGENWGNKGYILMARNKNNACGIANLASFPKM

| SMILES | Ki | fold improvement in in vitro potency against human cathepsin K |
| --- | --- | --- |
| CC(C)C[C@H](NC(=O)c1ccc(N2CCN(C)CC2)cc1)C(=O)N1C[C@@H](C)[C@H]2OCC(=O)[C@H]21 [Example 1, N—((S)-4-methyl-1-((3aS,6R,6aR)-6-methyl-3-oxodihydro-2H-furo[3,2-b]pyrrol-4(5H,6H,6aH)-yl)-1-oxopentan-2-yl)-4-(4-methylpiperazin-1-yl)benzamide] | 2.5 nM | 3.5 fold |
| C[C@@H]1CN(C(=O)[C@@H](NC(=O)c2ccc(N3CCN(C)CC3)cc2)C2CCCC2)[C@@H]2C(=O)CO[C@H]12 [Example 4, N—((S)-1-cyclopentyl-2-((3aS,6R,6aR)-6-methyl-3-oxodihydro-2H-furo[3,2-b]pyrrol-4(5H,6H,6aH)-yl)-2-oxoethyl)-4-(4-methylpiperazin-1-yl)benzamide] | 1 nM | 8.7 fold |
| CC(C)C[C@H](NC(=O)c1ccc(N2CCN(C)CC2)cc1)C(=O)N1C[C@H](C)[C@H]2OCC(=O)[C@H]21 [Example 5, N—((S)-4-methyl-1-((3aS,6S,6aR)-6-methyl-3-oxodihydro-2H-furo[3,2-b]pyrrol-4(5H,6H,6aH)-yl)-1-oxopentan-2-yl)-4-(4-methylpiperazin-1-yl)benzamide] | 0.75 nM | 11.6 fold |
| C[C@H]1CN(C(=O)[C@@H](NC(=O)c2ccc(N3CCN(C)CC3)cc2)C2CCCC2)[C@@H]2C(=O)CO[C@@H]21 [Example 7, N—((S)-1-cyclopentyl-2-((3aS,6S,6aR)-6-methyl-3-oxodihydro-2H-furo [3,2-b]pyrrol-4(5H,6H,6aH)-yl)-2-oxoethyl)-4-(4-methylpiperazin-1-yl)benzamide] | 0.35 nM | 24.9 fold |
| CC(C)C[C@H](NC(=O)c1ccc(N2CCN(C)CC2)cc1)C(=O)N1C[C@@H](C(F)F)[C@H]2OCC(=O)[C@H]21 [Example 8, N—((S)-1-((3aS,6R,6aR)-6-(difluoromethyl)-3-oxodihydro-2H-furo[3,2-b]pyrrol-4(5H,6H,6aH)-yl)-4-methyl-1-oxopentan-2-yl)-4-(4-methylpiperazin-1-yl)benzamide] | 1.7 nM | 5.7 fold |
| CC(C)C[C@H](NC(=O)c1ccc(N2CCN(C)CC2)cc1)C(=O)N1C[C@H](C(F)F)[C@H]2OCC(=O)[C@H]21 [Example 12, N—((S)-1-((3aS,6S,6aR)-6-(difluoromethyl)-3-oxodihydro-2H-furo[3,2-b]pyrrol-4(5H,6H,6aH)-yl)-4-methyl-1-oxopentan-2-yl)-4-(4-methylpiperazin-1-yl)benzamide] | 0.8 nM | 10.9 fold |
| CC(C)C[C@H](NC(=O)c1ccc(-c2csc(N3CCN(C)CC3)n2)cc1)C(=O)N1C[C@@H](C)[C@H]2OCC(=O)[C@H]21 [Example 16, N—((S)-4-methyl-1-((3aS,6R,6aR)-6-methyl-3-oxodihydro-2H-furo[3,2-b]pyrrol-4(5H,6H,6aH)-yl)-1-oxopentan-2-yl)-4-(2-(4-methylpiperazin-1-yl)thiazol-4-yl)benzamide] | 0.7 nM |  |
| CC[C@@H]1CN(C(=O)[C@@H](NC(=O)c2ccc(N3CCN(C)CC3)cc2)C(C)(C)C)[C@@H]2C(=O)CO[C@H]12 [Example 23, N—((S)-1-((3aS,6R,6aR)-6-ethyl-3-oxodihydro-2H-furo[3,2-b]pyrrol-4(5H,6H,6aH)-yl)-3,3-dimethyl-1-oxobutan-2-yl)-4-(4-methylpiperazin-1-yl)benzamide] | 4.4 nM |  |
| CC(C)[C@@H]1CN(C(=O)[C@@H](NC(=O)c2ccc(N3CCN(C)CC3)cc2)C(C)(C)C)[C@@H]2C(=O)CO[C@@H]21 [Example 24, N—((S)-1-((3aS,6R,6aH)-6-isopropyl-3-oxodihydro-2H-furo[3,2-b]pyrrol-4(5H,6H,6aH)-yl)-3,3-dimethyl-1-oxobutan-2-yl)-4-(4-methylpiperazin-1-yl)benzamide] | 3.2 nM |  |
| CC[C@H]1CN(C(=O)[C@@H](NC(=O)c2ccc(N3CCN(C)CC3)cc2)C(C)(C)C)[C@@H]2C(=O)CO[C@H]12 [Example 25, N—((S)-1-((3aS,6S,6aR)-6-ethyl-3-oxodihydro-2H-furo[3,2-b]pyrrol-4(5H,6H,6aH)-yl)-3,3-dimethyl-1-oxobutan-2-yl)-4-(4-methylpiperazin-1-yl)benzamide] | 0.8 nM |  |
| CC(C)[C@H]1CN(C(=O)[C@@H](NC(=O)c2ccc(N3CCN(C)CC3)cc2)C(C)(C)C)[C@@H]2C(=O)CO[C@H]12 [Example 26, N—((S)-1-((3aS,6S,6aR)-6-isopropyl-3-oxodihydro-2H-furo[3,2-b]pyrrol-4 (5H,6H,6aH)-yl)-3,3-dimethyl-1-oxobutan-2-yl)-4-(4-methylpiperazin-1-yl)benzamide] | 0.8 nM |  |
| CC[C@@H]1CN(C(=O)[C@@H](NC(=O)c2ccc(N3CCN(C)CC3)cc2)C2CCCC2)[C@@H]2C(=O)CO[C@H]12 [Example 27, N—((S)-1-cyclopentyl-2-((3aS,6R,6aR)-6-ethyl-3-oxodihydro-2H-furo[3,2-b]pyrrol-4(5H,6H,6aH)-yl)-2-oxoethyl)-4-(4-methylpiperazin-1-yl)benzamide] | 1.2 nM | 7.3 fold |
| CC(C)[C@@H]1CN(C(=O)[C@@H](NC(=O)c2ccc(N3CCN(C)CC3)cc2)C2CCCC2)[C@@H]2C(=O)CO[C@@H]21 [Example 28, N—((S)-1-cyclopentyl-2-((3aS,6R,6aR)-6-isopropyl-3-oxodihydro-2H-furo [3,2-b]pyrrol-4(5H,6H,6aH)-yl)-2-oxoethyl)-4-(4-methylpiperazin-1-yl)benzamide] | 1.5 nM | 5.8 fold |
| CC[C@H]1CN(C(=O)[C@@H](NC(=O)c2ccc(N3CCN(C)CC3)cc2)C2CCCC2)[C@@H]2C(=O)CO[C@H]12 [Example 29, N—((S)-1-cyclopentyl-2-((3aS,6S,6aR)-6-ethyl-3-oxodihydro-2H-furo[3,2-b]pyrrol-4(5H,6H,6aH)-yl)-2-oxoethyl)-4-(4-methylpiperazin-1-yl)benzamide] | 0.4 nM | 22.9 fold |
| CC(C)[C@H]1CN(C(=O)[C@@H](NC(=O)c2ccc(N3CCN(C)CC3)cc2)C2CCCC2)[C@@H]2C(=O)CO[C@H]12 [Example 30, N—((S)-1-cyclopentyl-2-((3aS,6S,6aR)-6-isopropyl-3-oxodihydro-2H-furo[3,2-b]pyrrol-4(5H,6H,6aH)-yl)-2-oxoethyl)-4-(4-methylpiperazin-1-yl)benzamide] | 0.45 nM | 18.9 fold |
